Values of other authors in article PMC5601361, “Targeting the Receptor for Advanced Glycation Endproducts (RAGE): A Medicinal Chemistry Perspective” (Journal of Medicinal Chemistry, 2017).
Entries after “also recorded” stand apart in the source; their conditions may differ. Read-outs that look alike come from different tables or passages of the source.

Key:
human RAGE-Aβ = test system: human RAGE-Aβ; set-up: method as in PMID 23140885
CHO cells = test system: CHO cells; set-up: method as in PMID 23140885; conditions: in vitro
[1] = test system: RAGE-overexpressing brain endothelial cells monolayer; set-up: method as in PMID 23140885; conditions: artificial BBB system
HT22 cells = conditions: 10 μM
APPswe/PS1 mice = conditions: po 50 mg/kg every 2 days for 4 weeks; 50 mg/kg
[2] = test system: human RAGE-Aβ1–42 interaction; set-up: method as in PMID 26051601; conditions: in vitro
human sRAGE [3] = biological target: human sRAGE; set-up: method as in PMID 17508727; conditions: SPR
human sRAGE [4] = biological target: human sRAGE; set-up: method as in PMID 17660747; conditions: V domain, SPR
human sRAGE [5] = conditions: SPR
human sRAGE [6] = conditions: VC1 domain; ITC; read-out: affinity for RAGE (Kd)

In the case of `CCCCc1sc(-c2ccc(OCCN3CCN(C)CC3)cc2)nc1-c1ccc(Oc2ccc(Cl)cc2)cc1` [Compound 2], the RAGE-Aβ binding (human RAGE-Aβ) is given as “• RAGE-Aβ binding inhibition”, the IC50 (human RAGE-Aβ; ELISA on human RAGE-Aβ (RAGE-Aβ1–42 interaction)) is given as 1210 nM and the “Aβ1–42-associated NF-κB activation” value (CHO cells) is given as “• inhibition of Aβ1–42-associated NF-κB activation (in vitro)”. For the same compound, the “Aβ1–42 influx / Aβ transport” value [1] was “Aβ transport inhibition; also recorded: • inhibition of Aβ1–42 influx in the brain”.

For `CC(C)(C)OC(=O)N1CCN(CCCOc2ccc(-c3nc4ccc(Oc5ccc(Cl)cc5)cc4o3)cc2)CC1` [Compound 8], the “toxicity in HT22 cells” value (HT22 cells) is listed as “not toxic”, the “amyloid deposition / Aβ and amyloid plaque levels in the brain” value (APPswe/PS1 mice) is listed as “did not significantly affect” and the “RAGE-Aβ1–42 binding” value [2] is listed as “• RAGE-Aβ1–42 binding inhibition (in vitro)”.

For “S100B: Ca2+-binding S100/calgranulin family protein, endogenous RAGE ligand [Compound S100B]”, the Kd (human sRAGE [3]; V domain, read-out: Kd1) is given as 550 nM, the Kd (human sRAGE [3]; V domain, read-out: Kd2) is given as 470 nM and the Kd (human sRAGE [3]; VC1 domain, read-out: Kd1) is given as 11 nM. The Kd (human sRAGE [3]; VC1 domain, read-out: Kd2) was 244 nM, the Kd (human sRAGE [4]; S100B dimer, read-out: Kd) was 8300 nM and the Kd (human sRAGE [4]; S100B tetramer, read-out: Kd1) was 1100 nM. The Kd (human sRAGE [4]; S100B tetramer, read-out: Kd2) was 42 nM, the Kd (human sRAGE [5]; V domain, read-out: Kd1) was 500 nM and the Kd (human sRAGE [5]; V domain, read-out: Kd2) was 600 nM. For the same compound, the Kd (human sRAGE [5]; VC1 domain, read-out: Kd1) was 11 nM, the Kd (human sRAGE [5]; VC1 domain, read-out: Kd2) was 200 nM and the Kd (human sRAGE [6]) was 3200 to 9400 nM.
